We go through 33 compounds from US20090054392A1, “NAPHTHYLPYRIMIDINE, NAPHTHYLPYRAZINE AND NAPHTHYLPYRIDAZINE ANALOGS AND THEIR USE AS AGONISTS OF THE WNT-BETA-CATENIN CELLULAR MESSAGING SYSTEM” (Wyeth, priority 2007, published 2009).

The data set deals with Dkk1-LRP5-TCF-Luciferase. Nature of the data set: Functional Dkk1-LRP5-TCF-Luciferase Assay in U2OS Cells. To be noted: for fold induction at 2 µM / fold induction at 20 µM / EC50: Homo sapiens, U2OS; for fold induction at 2 µM: read-out: B = TCF ACTIVITY/DMSO CONTROL Fold induction @ 2.0 uM, 2.0 uM compound; for fold induction at 20 µM: read-out: C = TCF ACTIVITY/DMSO CONTROL Fold induction @ 20.0 uM, 20.0 uM compound; for A = MAX FOLD Induction/DMSO CONTROL: maximum fold induction over DMSO control.

Regarding `CN(C)[C@@H]1CCN([C@@H]2CCN(c3nccc(-c4ccc5ccccc5c4)n3)C2)C1` [(3R,3′R)-N,N-dimethyl-1′-[4-(2-naphthyl)pyrimidin-2-yl]-1,3′-bipyrrolidin-3-amine], the fold induction at 2 µM is 2.71, the fold induction at 20 µM was found to be 0.01 and the “A = MAX FOLD Induction/DMSO CONTROL” value was determined as 1.710 fold.

Take `COC(=O)NCCC1CCN(c2nccc(-c3ccc4ccccc4c3)n2)CC1` [methyl (2-{1-[4-(2-naphthyl)pyrimidin-2-yl]piperidin-4-yl}ethyl)carbamate]: the fold induction at 2 µM was 1.39 and the fold induction at 20 µM came out at 0.89.

In the case of `CCOC(=O)N1CC[C@H](Nc2nccc(-c3ccc4ccccc4c3)n2)C1` [ethyl (3S)-3-{[4-(2-naphthyl)pyrimidin-2-yl]amino}pyrrolidine-1-carboxylate], the fold induction at 2 µM was found to be 1.28 and the fold induction at 20 µM was determined as 1.54.

For `CN1CCN([C@@H]2CCN(c3nccc(-c4ccc5ccccc5c4)n3)C2)CC1` [2-[(3R)-3-(4-methylpiperazin-1-yl)pyrrolidin-1-yl]-4-(2-naphthyl)pyrimidine], the fold induction at 2 µM turned out to be 3.67, the fold induction at 20 µM was determined as 0.01 and the “A = MAX FOLD Induction/DMSO CONTROL” value came to 1.020 fold.

On to `CC(C)(C)OC(=O)N1CC[C@H](Nc2nccc(-c3ccc4ccccc4c3)n2)C1` [tert-butyl (3S)-3-{[4-(2-naphthyl)pyrimidin-2-yl]amino}pyrrolidine-1-carboxylate], for which the fold induction at 2 µM was 2.11 and the “A = MAX FOLD Induction/DMSO CONTROL” value came to 1.270 fold.

In the case of `O=C(c1ccccc1)N1CC(CNc2nccc(-c3ccc4ccccc4c3)n2)C1` [N-[(1-benzoylazetidin-3-yl)methyl]-4-(2-naphthyl)pyrimidin-2-amine], the fold induction at 2 µM came to 1.5.

On to `CC(=O)N1CCC(Nc2nccc(-c3ccc4ccccc4c3)n2)CC1` [N-(1-acetylpiperidin-4-yl)-4-(2-naphthyl)pyrimidin-2-amine], for which the EC50 stood at 5.5 µM, the fold induction at 2 µM amounted to 1.09, the fold induction at 20 µM was determined as 2.53 and the “A = MAX FOLD Induction/DMSO CONTROL” value is 2.428 fold.

As for `O=C([C@@H]1CCCN1c1nccc(-c2ccc3ccccc3c2)n1)N1CCCC1` [4-(2-naphthyl)-2-[(2S)-2-(pyrrolidin-1-ylcarbonyl)pyrrolidin-1-yl]pyrimidine], the fold induction at 2 µM is 0.87 and the fold induction at 20 µM amounted to 1.07.

Regarding `CN(c1nccc(-c2ccc3ccccc3c2)n1)C1CCN(CC(N)=O)CC1` [2-(4-{methyl[4-(2-naphthyl)pyrimidin-2-yl]amino}piperidin-1-yl)acetamide], the fold induction at 2 µM is 2.62, the fold induction at 20 µM is 0.02 and the “A = MAX FOLD Induction/DMSO CONTROL” value was 2.215 fold.

For the compound `c1ccc2c(c1)CCN(c1nccc(-c3ccc4ccccc4c3)n1)C2` [2-[4-(2-naphthyl)pyrimidin-2-yl]-1,2,3,4-tetrahydroisoquinoline], the fold induction at 2 µM was 0.95 and the fold induction at 20 µM came to 1.38.

Turning to `CN(C)C(=O)N[C@H]1CCN(c2nccc(-c3ccc4ccccc4c3)n2)C1` [N,N-dimethyl-N′-{(3S)-1-[4-(2-naphthyl)pyrimidin-2-yl]pyrrolidin-3-yl}urea], the fold induction at 2 µM amounted to 0.94 and the fold induction at 20 µM was 1.65.

On to `NC(=O)N1CC(CNc2nccc(-c3ccc4ccccc4c3)n2)C1` [3-({[4-(2-naphthyl)pyrimidin-2-yl]amino}methyl)azetidine-1-carboxamide], for which the fold induction at 2 µM is 1.09 and the fold induction at 20 µM came out at 1.58.

`O=C(c1ccccc1)N1CC[C@H](Nc2nccc(-c3ccc4ccccc4c3)n2)C1` [N-[(3S)-1-benzoylpyrrolidin-3-yl]-4-(2-naphthyl)pyrimidin-2-amine]: the fold induction at 2 µM stood at 1.23.

On to `CCN(CCO)CC1CCN(c2nccc(-c3ccc4ccccc4c3)n2)CC1` [2-[ethyl({1-[4-(2-naphthyl)pyrimidin-2-yl]piperidin-4-yl}methyl)amino]ethanol], for which the fold induction at 2 µM was found to be 4.93, the fold induction at 20 µM stood at 0.01 and the “A = MAX FOLD Induction/DMSO CONTROL” value is on record as 2.760 fold.

As for `c1ccc2cc(-c3ccnc(NCc4ccncc4)n3)ccc2c1` [4-(2-naphthyl)-N-(pyridin-4-ylmethyl)pyrimidin-2-amine], a half-maximal response (EC50) required 2.42 µM, the fold induction at 2 µM worked out at 1.41, the fold induction at 20 µM turned out to be 1.7 and the “A = MAX FOLD Induction/DMSO CONTROL” value stood at 2.070 fold.

On to `CC(=O)N[C@H]1CC[C@H](Nc2nccc(-c3ccc4ccccc4c3)n2)CC1` [N-(trans-4-{[4-(2-naphthyl)pyrimidin-2-yl]amino}cyclohexyl)acetamide], for which the midpoint of the response, the EC50, lay at 18.9 µM; the fold induction at 2 µM was found to be 1.9; the fold induction at 20 µM amounted to 3.2; the “A = MAX FOLD Induction/DMSO CONTROL” value is 3.695 fold.

Take `CN(C)[C@H]1CCN([C@H]2CCN(c3nccc(-c4ccc5ccccc5c4)n3)C2)C1` [(3S,3′S)-N,N-dimethyl-1′-[4-(2-naphthyl)pyrimidin-2-yl]-1,3′-bipyrrolidin-3-amine]: the fold induction at 2 µM was 2.47, the fold induction at 20 µM turned out to be 0.02 and the “A = MAX FOLD Induction/DMSO CONTROL” value is on record as 2.030 fold.

With `CCS(=O)(=O)N(C)CCN(C)[C@@H]1CCN(c2nccc(-c3ccc4ccccc4c3)n2)C1` [N-methyl-N-[2-(methyl{(3R)-1-[4-(2-naphthyl)pyrimidin-2-yl]pyrrolidin-3-yl}amino)ethyl]ethanesulfonamide], the fold induction at 20 µM was 1.3.

Consider `NC(=O)NC1CCCN(c2nccc(-c3ccc4ccccc4c3)n2)CC1` (centres unmarked) [N-{1-[4-(2-naphthyl)pyrimidin-2-yl]azepan-4-yl}urea], for which it took 20.4 µM to reach a half-maximal effect (EC50), the fold induction at 2 µM was 1.62, the fold induction at 20 µM is 2.89 and the “A = MAX FOLD Induction/DMSO CONTROL” value amounted to 1.500 fold.

Regarding `NCCC1CN(c2nccc(-c3ccc4ccccc4c3)n2)C1` [2-[1-(4-naphthalen-2-ylpyrimidin-2-yl)azetidin-3-yl]ethanamine], the fold induction at 2 µM worked out at 2.4.

`COC(=O)[C@@H](N)C1CCN(c2nccc(-c3ccc4ccccc4c3)n2)CC1` [methyl (2S)-amino{1-[4-(2-naphthyl)pyrimidin-2-yl]piperidin-4-yl}acetate]: the fold induction at 20 µM came out at 0.57 and the “A = MAX FOLD Induction/DMSO CONTROL” value stood at 1.590 fold.

As for `CN1CCN(c2nccc(-c3ccc4ccccc4c3)n2)CC1` [2-(4-methylpiperazin-1-yl)-4-(2-naphthyl)pyrimidine], the 50% effective concentration (EC50) came to 15.5 µM, the fold induction at 2 µM was determined as 1.16, the fold induction at 20 µM is 1.81 and the “A = MAX FOLD Induction/DMSO CONTROL” value worked out at 2.960 fold.

`CN(C)S(=O)(=O)N[C@@H]1CCN(c2nccc(-c3ccc4ccccc4c3)n2)C1` [N,N-dimethyl-N′-{(3R)-1-[4-(2-naphthyl)pyrimidin-2-yl]pyrrolidin-3-yl}sulfamide]: the fold induction at 2 µM came to 1.42 and the fold induction at 20 µM worked out at 0.82.

On to `CC(NC(=O)OC(C)(C)C)C1CCN(c2nccc(-c3ccc4ccccc4c3)n2)CC1` (centres unmarked) [tert-butyl (1-{1-[4-(2-naphthyl)pyrimidin-2-yl]piperidin-4-yl}ethyl)carbamate], for which the fold induction at 20 µM was determined as 0.81.

On to `OC[C@H]1CCCN1c1nccc(-c2ccc3ccccc3c2)n1` [{(2R)-1-[4-(2-naphthyl)pyrimidin-2-yl]pyrrolidin-2-yl}methanol], for which the fold induction at 2 µM turned out to be 1.85 and the fold induction at 20 µM was determined as 1.78.

In the case of `OC1CCN([C@@H]2CCN(c3nccc(-c4ccc5ccccc5c4)n3)C2)CC1` [1-{(3R)-1-[4-(2-naphthyl)pyrimidin-2-yl]pyrrolidin-3-yl}piperidin-4-ol], the fold induction at 2 µM is 1.44 and the fold induction at 20 µM was determined as 0.14.

Take `CC(C)(C)OC(=O)NCC1CN(c2nccc(-c3ccc4ccccc4c3)n2)C1` [tert-butyl ({1-[4-(2-naphthyl)pyrimidin-2-yl]azetidin-3-yl}methyl)carbamate]: the fold induction at 2 µM was determined as 1.41 and the fold induction at 20 µM came out at 0.46.

`CC(C)(C)OC(=O)NC1CCN(c2nccc(-c3ccc4ccccc4c3)n2)CC1` [tert-butyl {1-[4-(2-naphthyl)pyrimidin-2-yl]piperidin-4-yl}carbamate]: the fold induction at 2 µM turned out to be 0.93 and the fold induction at 20 µM worked out at 1.91.

As for `O=C1CCCN1[C@H]1CCN(c2nccc(-c3ccc4ccccc4c3)n2)C1` [(3′S)-1′-[4-(2-naphthyl)pyrimidin-2-yl]-1,3′-bipyrrolidin-2-one], the EC50 is 0.189 µM, the fold induction at 2 µM was found to be 3.04, the fold induction at 20 µM was found to be 3.62 and the “A = MAX FOLD Induction/DMSO CONTROL” value was determined as 2.290 fold.

As for `c1ccc2cc(-c3ccnc(N4CC[C@H](N5CCOCC5)C4)n3)ccc2c1` [4-{(3S)-1-[4-(2-naphthyl)pyrimidin-2-yl]pyrrolidin-3-yl}morpholine], a half-maximal effect (EC50) was put at 7.5 µM, the fold induction at 2 µM is 1.17, the fold induction at 20 µM was 3.06 and the “A = MAX FOLD Induction/DMSO CONTROL” value came out at 2.405 fold.

Take `OC[C@H]1CCCN(c2nccc(-c3ccc4ccccc4c3)n2)C1` [{(3S)-1-[4-(2-naphthyl)pyrimidin-2-yl]piperidin-3-yl}methanol]: the fold induction at 2 µM was determined as 2.8, the fold induction at 20 µM was found to be 1.81 and the “A = MAX FOLD Induction/DMSO CONTROL” value was determined as 1.840 fold.

As for `CC(C)(C)OC(=O)N1CC[C@@H](Nc2nccc(-c3ccc4ccccc4c3)n2)C1` [tert-butyl (3R)-3-{[4-(2-naphthyl)pyrimidin-2-yl]amino}pyrrolidine-1-carboxylate], the fold induction at 2 µM was 2.38, the fold induction at 20 µM worked out at 0.01 and the “A = MAX FOLD Induction/DMSO CONTROL” value is 0.800 fold.

On to `NCC[C@@H]1CCCN1c1nccc(-c2ccc3ccccc3c2)n1` [2-{(2S)-1-[4-(2-naphthyl)pyrimidin-2-yl]pyrrolidin-2-yl}ethanamine], for which the fold induction at 2 µM worked out at 4.08, the fold induction at 20 µM is 0.02 and the “A = MAX FOLD Induction/DMSO CONTROL” value came out at 2.950 fold.
